Test results taken from patent US7745651B2, “Cationic lipids and methods of use” (Protiva Biotherapeutics, Inc., priority 2004, dated 2010).
Entries after “also recorded” stand apart in the source; their conditions may differ.

Tests used:
Format in all cases: cell-based
Neuro2A cells = assay: Cellular uptake of 3H-CHE-labeled SNALP; details: 24 hours
Protocol: Cellular Uptake: SNALP were prepared incorporating the non-exchangeable tritium-labeled lipid cholesteryl hexadecyl ether (3H—CHE) (11.1 μCi/μmol total lipid) [Bally et al., in Liposome Technology, Vol. III, pp. 27-41, CRC Press (1993)]. Neuro2A cells (ATCC, VA, USA) were plated in 12 well plates at 1.6×10^5 cells per well in minimal essential media. The following day, media was removed and replaced with media containing radiolabelled SNALP at 0.5 μg/mL nucleic acid. After 24 hours, the media and unincorporated SNALP were removed, adherent cells gently washed 4 times with PBS, and then lysed with 600 μL Lysis Buffer (250 mM phosphate with 0.1% Triton X-100). The resulting cell lysate (500 μL) was added to glass scintillation vials containing 5 mL Picofluor 40 (Perkin Elmer) and ^3H—CHE was determined using a Beckman LS6500 scintillation counter (Beckman Instruments). The protein content of cell lysates was determined using the Micro BCA assay (Pierce). Uptake was expressed as a percentage of the total amount of activity applied to the cells per mg of cellular protein.
The extent to which formulations are taken up by cells was measured with SNALP incorporating ^3H-labeled CHE [Bally et al., in Liposome Technology, Vol. III, pp. 27-41, CRC Press (1993)]. […] Uptake is expressed as a percentage of the total activity applied to the cells. […]

[1] = tested on: luciferase expression in Neuro2A-G cells (Neuro2A cells stably transfected to express luciferase); assay: In vitro transfection: luciferase gene silencing by SNALP encapsulating anti-luciferase siRNA; details: SNALP with anti-luciferase siRNA; for knockdown in gene expression (luciferase) versus control SNALP containing mismatch siRNA: Neuro2A cells stably expressing luciferase, 48 hours; for luciferase expression relative to untreated control: after 48 hours
Protocol: In vitro Transfection: Cells were cultured in MEM (Invitrogen) containing 10% fetal bovine serum (FBS) (CanSera) and 0.25 mg/mL G418 (Invitrogen). Neuro2A-G cells (Neuro2A cells stably transfected to express luciferase [R. E. Kingston. in Current Protocols in Molecular Biology, Vol. 2, pp. 9.1.4-9.1.9, John Wiley & Sons, Inc. (1997)]) were plated at a concentration of 4×10^4 cells per well in 24-well plates and grown overnight. Cells were treated with SNALP at doses of 0.0625-1.0 μg/mL nucleic acid (AntiLuc Active or Mismatch Control) and incubated for 48 hours at 37° C. and 5% CO2. Cells were then washed with PBS and lysed with 200 μL 250 mM sodium phosphate containing 0.1% Triton X-100. The luciferase activity for each well was determined using Luciferase Reagent (Promega) and a standard luciferase protein (Roche). The luminescence for each was measured using a Berthold MicroLumatPlus LB96V plate luminometer. The resulting luciferase activity was then normalized for the amount of protein using the Micro BCA assay kit (Pierce). Luciferase knockdown relative to a control was then determined for each system.
This example describes experiments comparing expression of nucleic acids following in vitro transfection of Neuro2A cells with SNALP comprising: (1) DODAC, DODMA, or DLinDMA; (2) PEG-C-DMA; and (3) an siRNA duplex directed against luciferase encapsulated in the SNALP (i.e., siRNA comprising the following sequence: […] (SEQ ID NO:1) and targeting the DNA sequence complementary to: […] (SEQ ID NO:3)). Neuro2A cells were stably transfected with a plasmid encoding luciferase under the control of the CMV promoter (pLO55). The stably transfected cells were then transfected with SNALP comprising: 15, 20, 25, 30, 35, or 40% of DODAC, DODMA, or DLinDMA; 2% PEG-C-DMA, and an siRNA duplex directed against luciferase encapsulated in the SNALP. Luciferase protein expression was measured 48 hours after transfection with SNALP.
The ability of SNALP containing each of the four cationic lipids (i.e., DSDMA, DODMA, DLinDMA, and DLenDMA) to effect gene silencing in stably transfected Neuro2A cells was evaluated. Neuro2A cells stably transfected to express the luciferase were treated with SNALP containing anti-luciferase siRNA for 48 hours. Gene-silencing efficiency was evaluated by comparing the remaining luciferase activity in these cells to that remaining in cells treated with control SNALP containing mismatch siRNA.

Neuro2A-G cells = assay: Uptake of SNALP containing Cy3-labeled siRNA, fluorescence microscopy; details: 0.5 μg/mL siRNA, 4 hours
Protocol: Uptake of SNALP Containing Cy3-labeled siRNA: SNALP were formulated as previously described, but using siRNA labelled with the fluorophore Cy3 (Cy3-siRNA was a gift of Sirna Therapeutics Inc, Boulder, Colo.). The encapsulation, siRNA concentration, and particle size were determined as described.
For the uptake study, 8×10^4 Neuro2A-G cells were grown overnight on 4-well chamber slides (BD Falcon, Mississauga, ON) in MEM containing 0.25 mg/mL G418. DSDMA, DODMA, DLinDMA, and DLenDMA SNALP containing Cy3-siRNA, as well as naked Cy3-siRNA and unlabeled DSDMA SNALP were placed on the cells at 0.5 μg/mL siRNA. After a 4 hour incubation with the transfection media, the cells were washed with PBS, then with MEM containing G418 and finally with PBS once more. […] The cells were viewed using an Olympus BX60 Microscope modified for fluorescence capabilities. Cy3 fluorescence within the cells was visualized using a rhodamine cube set (Microgen Optics, Redding, Calif.) and the DAPI fluorescence was visualized using a DAPI cube set (Carsen Group, Markham, ON). […] Pictures of the cells were taken at exposure times of ¼ sec when examining Cy3 fluorescence and 1/80 sec when examining DAPI fluorescence.
The uptake process was examined further with the use of fluorescently labelled SNALP. […] The Cy3 fluorescence (red) is most intense in cells treated with DSDMA containing SNALP. […]

With CC/C=C\C/C=C\C/C=C\CCCCCCCCOCC(CN(C)C)OCCCCCCCC/C=C\C/C=C\C/C=C\CC (centres unmarked) [DLenDMA, 1,2-Dilinolenyloxy-N,N-dimethylaminopropane] the “cellular uptake of 3H-CHE-labeled SNALP” value (Neuro2A cells) was “particularly limited; also recorded: limited when compared to that of the DLinDMA formulation”, the “knockdown in gene expression (luciferase) versus control SNALP containing mismatch siRNA” value [1] was “slightly less efficient than those containing DLinDMA” and the “luciferase expression relative to untreated control” value [1] was 32%. The “cellular uptake of Cy3-labeled siRNA (Cy3 fluorescence)” value (Neuro2A-G cells) was “extremely faint”.

For CCCCCCCCCCCCCCCCCC[N+](C)(C)CCCCCCCCCCCCCCCCCC [DSDMA, Distearyldimethylammonium], the “cellular uptake of 3H-CHE-labeled SNALP” value (Neuro2A cells) was “greatest degree of uptake; also recorded: taken up most readily”, the “knockdown in gene expression (luciferase) versus control SNALP containing mismatch siRNA” value [1] was “no activity; also recorded: almost no capacity for effecting RNA interference” and the “luciferase expression relative to untreated control” value [1] was “no effect on luciferase gene expression”. For the same compound, the “cellular uptake of Cy3-labeled siRNA (Cy3 fluorescence)” value (Neuro2A-G cells) was “most intense”.
